Test results reported in patent EP4818177A1, “TRICYCLIC DERIVATIVE INHIBITOR, AND PREPARATION METHOD AND USE THEREFOR” (Shanghai Hansoh Biomedical Co., Ltd., priority 2023, dated 2025).

Key:
[1] = tested on: HCT116 wild-type cells; assay: Cell proliferation inhibition (CellTiter-Glo), wild-type cells; type: cell-based; conditions: 72-240 hours incubation
Source text: (§1) Test Example 2: Determination of the inhibitory effect of the compounds of the present invention on the proliferation activity of HCT116 and MTAP Knockout HCT116 cells.
(§2) 1. Experimental objective: to determine the inhibitory effect of the compound on the proliferation activity of HCT116 wild-type and HCT116 MTAP knockout cells. 2. Experimental instruments: Centrifuge (Eppendorf 5810R); microplate reader (BioTek Synergy H1 or PerkinElmer Envision); pipette (Eppendorf or Rainin). 3. Experimental reagents: HCT116 and MTAP Knockout HCT116 cells were purchased from Nanjing Cobioer; Cell Titer-Glo was purchased from Promega (Cat. No. G7573); McCoy' 5A was purchased from Gibco (Cat. No. 12330031); FBS was purchased from Gibco (Cat. No. 10091148); PBS was purchased from Gibco (Cat. No. 10010023); trypsin was purchased from Gibco (Cat. No. 25200056); cell culture plates were purchased from Corning (Cat. No. 3610). 4. Experimental methods: HCT116 and MTAP Knockout HCT116 cells were cultured in McCoy'5A medium containing 10% FBS until an appropriate cell density was reached. The cells were then collected and adjusted to a suitable concentration using complete medium. The cell suspension was seeded into a 96-well plate at 90 µL per well and allowed to adhere overnight in a 37°C, 5% CO2 incubator. Compound solutions of various concentrations were prepared using DMSO and culture medium, with a vehicle control set. The compound solutions were added to the 96-well plate at 10 µL per well, and the plate was incubated in a 37°C, 5% CO2 incubator for an additional 72-240 hours. After incubation, CellTiter-Glo solution was added, and the mixture was mixed uniformly by shaking, followed by incubation in the dark for 10 to 30 minutes. Luminescence was measured using a Synergy H1 or Envision microplate reader. 5. Experimental data processing method: The inhibition rate was calculated using the luminescence signal values, and the concentrations along with the inhibition rates were subjected to non-linear regression curve fitting using Graphpad Prism software to obtain the IC50 values.

[2] = tested on: MTAP Knockout HCT116 cells; assay: Cell proliferation inhibition (CellTiter-Glo), MTAP knockout cells; type: cell-based; conditions: for Selectivity: HCT116 versus MTAP Knockout HCT116; for IC50: 72-240 hours incubation, CellTiter-Glo
Source text: as §1, §2

[3] = in vivo; conditions: rat, po, 5 mg/kg
Procedure: (§3) Test Example 4: Determination of the pharmacokinetics of the compounds of the present invention in rats (plasma) after oral administration.
(§4) Study objective: SD rats were used as test animals to study the pharmacokinetic behaviour of the following example compounds in rats (plasma) after oral administration at a dose of 5 mg/kg. […] Test scheme 2.1 Test drugs: Vehicle formula: 0.5% CMC-Na (1% Tween 80); the examples of the present invention, prepared in house. 2.2 Test animals: 3 SD rats per group, male, purchased from Shanghai Bikai Keyi Biotechnology Co., Ltd., with animal license number (SCXK (Shanghai) 2018-0006, No.20180006037467). 2.3 Administration: 3 SD rats per group, male, were fasted overnight and then respectively administered PO at a dose of 5 mg/kg and a volume of 10 mL/kg. 2.4 Sample collection: 0.2 mL of blood was collected from the jugular vein of rats before administration and at 0, 0.25, 0.5, 1, 2, 4, 6, 8 and 24 h after administration, and placed in EDTA-K2test tubes, and the test tubes were centrifuged at 6,000 rpm at 4°C for 6 min to separate the plasma, which was stored at -80°C. The animals were fed 4 h after administration. 2.5 Sample treatment • 1) 160 uL of acetonitrile was added to 40 uL of plasma sample for precipitation, and after mixing, the mixture was centrifuged at 3,500 × g for 5-20 minutes. • 2) 100 uL of the treated supernatant solution was taken for LC/MS/MS analysis to determine the concentration of the test compounds. 2.6 Liquid phase analysis • Liquid phase conditions: Shimadzu LC-20AD pump; • Mass spectrometry conditions: AB Sciex API 4000 mass spectrometer; • Chromatographic column: phenomenex Gemiu 5 um C18 50 × 4.6 mm; • Mobile phase: solution A: 0.1% formic acid in water, solution B: methanol; • flow rate: 1.0 mL/min; Elution time: 0-4.0 min, with eluents as follows:
(§5) Experimental results and analysis: The main pharmacokinetic parameters were calculated using WinNonlin 8.2.

[4] = target: T1, PRMT5/MEP50-MTA protein complex (Homo sapiens, UniProt O14744); assay: Thermal shift assay: change in melting temperature of the PRMT5/MEP50-MTA protein complex; type: binding; conditions: compound 8 µM, PRMT5/MEP50 2 µM, MTA 2 µM; Tm minus DMSO vehicle control
T1 construct: purchased Viva Biotech
Method in brief: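 Human PRMT5/MEP50 (2 µM) preincubated 30 min at room temperature in 50 mM HEPES, 10 mM DTT, 250 mM NaCl with 2 µM MTA and SYPRO Orange. Compound at 8 µM final, 10 min at room temperature, 2.5% DMSO vehicle control. Melt curve 25→95°C at 0.03°C/s gives Tm.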

[5] = target: T2, hERG potassium channel (Homo sapiens, UniProt Q12809); assay: hERG potassium channel inhibitory activity assay (patch clamp, CHO-hERG cells); type: cell-based; conditions: tail current, read-out: inhibitory activity (IC50) against the cardiac hERG potassium channel
T2 construct: host or cells: CHO cells stably expressing hERG (CHO-hERG)
Source text: Test Example 5: hERG potassium channel inhibitory activity assay
1. Study objective: to determine the inhibitory effect of the compound on the hERG potassium channel activity. 2. Experimental instruments and reagents: 2.1 Reagents
3. Experimental methods • 3.1 Cell culture: The CHO cells stably expressing the hERG potassium channel (CHO-hERG) used in the experiment were obtained from Sophion Bioscience (Ballerup, Denmark), and passaged and cryopreserved at WuXi AppTec Co., Ltd. in Shanghai. The CHO-hERG cells were cultured and passaged in Ham's F-12 medium containing 1 × GlutaMAX, 10% fetal bovine serum, 100 µg/mL G418 and 100 µg/mL hygromycin B at 37°C with 5% CO2. • 3.2 Preparation of intracellular and extracellular solutions: The extracellular solution was prepared once a month, and aliquoted and stored in 1 L storage bottles. The intracellular solution was prepared once every three months, and aliquoted and cryopreserved at -20°C. The intracellular solution was thawed in a 37°C water bath before the experiment and then placed in an ice bath for later use. • 3.3 Preparation of compounds: The compounds were dissolved in 100% DMSO (Sigma-Aldrich, D2650) to prepare 10 mM or 30 mM stock solutions. Before the experiment, the stock solutions of the test compounds were diluted with DMSO to prepare solutions 1000-fold or 333-fold higher than the desired test concentrations, and then further diluted 1000-fold or 333-fold with the extracellular solution to achieve the desired concentrations. • 3.4 Cell preparation: The CHO-hERG cells used in the experiment were cultured for at least two days. When the cell density reached more than 75%, the cells were digested with TrypLE, then resuspended in the extracellular solution, and centrifuged. The supernatant was discarded, and then the cells were further resuspended in 2 mL of extracellular solution for later use. 4. Experimental data processing: In data processing, the peak tail current was baseline-corrected when evaluating the hERG blocking effect. The effect of each compound at various concentrations was expressed as the inhibition rate of the tail current. IC50 values were obtained by fitting the data to the Hill equation: I/Icontrol = Bottom + (Top−Bottom)/(1+10^(∧)((LogIC50−X)*HillSlope)) [formula] • Top: maximum effect; Bottom: minimum effect; Hillslope: slope; X: concentration of the test compound. • IC50: half-maximal inhibitory concentration of the test compound on hERG. […] 5.

[6] = Pharmacokinetics in rats (plasma) after oral administration; conditions: rat, 5 mg/kg
Procedure: as §3, §4, §5

[7] = Homo sapiens, HCT-116, HCT116 wild-type cells
[8] = Homo sapiens, HCT-116, MTAP Knockout HCT116 cells

T1 sequence (O14744 whole entry): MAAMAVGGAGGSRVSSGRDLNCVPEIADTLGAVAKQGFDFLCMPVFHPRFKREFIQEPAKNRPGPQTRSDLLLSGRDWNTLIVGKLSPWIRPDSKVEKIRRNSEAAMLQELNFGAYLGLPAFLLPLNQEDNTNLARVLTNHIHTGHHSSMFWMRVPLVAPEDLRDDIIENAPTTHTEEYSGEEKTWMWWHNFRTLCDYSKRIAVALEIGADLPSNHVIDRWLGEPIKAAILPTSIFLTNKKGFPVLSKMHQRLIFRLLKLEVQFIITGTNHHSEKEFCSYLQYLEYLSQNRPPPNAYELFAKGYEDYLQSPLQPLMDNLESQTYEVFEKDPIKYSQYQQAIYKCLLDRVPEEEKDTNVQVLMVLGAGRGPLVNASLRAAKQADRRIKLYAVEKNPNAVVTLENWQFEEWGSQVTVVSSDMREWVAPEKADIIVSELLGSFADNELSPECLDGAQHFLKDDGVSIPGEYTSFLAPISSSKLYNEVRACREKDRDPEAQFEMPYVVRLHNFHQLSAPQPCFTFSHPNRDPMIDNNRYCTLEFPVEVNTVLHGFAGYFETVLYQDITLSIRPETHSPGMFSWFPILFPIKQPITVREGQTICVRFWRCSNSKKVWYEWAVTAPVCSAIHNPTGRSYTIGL
T1 sequence (Q9BQA1 whole entry partner): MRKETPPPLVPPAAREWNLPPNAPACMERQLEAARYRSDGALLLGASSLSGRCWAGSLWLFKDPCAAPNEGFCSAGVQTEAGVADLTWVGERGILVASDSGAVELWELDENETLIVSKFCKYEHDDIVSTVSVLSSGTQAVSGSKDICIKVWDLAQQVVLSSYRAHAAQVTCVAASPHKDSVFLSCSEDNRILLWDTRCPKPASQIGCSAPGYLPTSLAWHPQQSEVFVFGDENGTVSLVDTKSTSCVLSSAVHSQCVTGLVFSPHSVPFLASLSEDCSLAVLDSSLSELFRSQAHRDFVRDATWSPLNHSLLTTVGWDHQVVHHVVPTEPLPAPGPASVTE
T2 sequence (Q12809 whole entry): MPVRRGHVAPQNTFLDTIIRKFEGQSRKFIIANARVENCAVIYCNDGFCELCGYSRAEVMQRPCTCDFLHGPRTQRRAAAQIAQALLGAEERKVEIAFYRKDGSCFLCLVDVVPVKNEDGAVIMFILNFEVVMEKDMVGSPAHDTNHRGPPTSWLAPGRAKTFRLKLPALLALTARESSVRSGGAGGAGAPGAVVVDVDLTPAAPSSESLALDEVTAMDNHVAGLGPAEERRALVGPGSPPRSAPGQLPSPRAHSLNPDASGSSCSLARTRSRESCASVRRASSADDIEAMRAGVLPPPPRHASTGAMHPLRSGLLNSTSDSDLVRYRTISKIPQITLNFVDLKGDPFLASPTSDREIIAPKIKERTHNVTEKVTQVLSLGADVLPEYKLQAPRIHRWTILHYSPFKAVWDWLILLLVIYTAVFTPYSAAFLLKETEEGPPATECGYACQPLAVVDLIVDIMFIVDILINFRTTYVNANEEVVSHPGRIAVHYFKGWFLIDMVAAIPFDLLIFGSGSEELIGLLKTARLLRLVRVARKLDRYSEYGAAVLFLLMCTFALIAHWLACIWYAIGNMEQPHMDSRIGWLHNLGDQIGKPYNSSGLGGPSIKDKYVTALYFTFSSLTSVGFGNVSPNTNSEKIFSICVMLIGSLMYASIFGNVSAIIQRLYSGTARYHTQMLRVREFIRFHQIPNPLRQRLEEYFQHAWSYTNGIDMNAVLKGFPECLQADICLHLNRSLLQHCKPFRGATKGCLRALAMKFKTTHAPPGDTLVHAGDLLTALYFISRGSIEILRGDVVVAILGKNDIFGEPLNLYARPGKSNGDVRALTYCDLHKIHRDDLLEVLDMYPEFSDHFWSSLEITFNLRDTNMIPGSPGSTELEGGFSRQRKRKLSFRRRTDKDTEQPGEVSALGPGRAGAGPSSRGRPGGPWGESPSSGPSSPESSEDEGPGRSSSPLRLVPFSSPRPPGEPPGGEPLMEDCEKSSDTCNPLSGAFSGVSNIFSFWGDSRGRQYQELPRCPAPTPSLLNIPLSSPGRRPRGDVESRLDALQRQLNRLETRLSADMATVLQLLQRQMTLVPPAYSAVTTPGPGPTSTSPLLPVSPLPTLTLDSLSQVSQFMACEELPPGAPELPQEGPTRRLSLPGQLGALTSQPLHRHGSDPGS

Structure (SMILES)	IC50 [1, 7] [µM]	Selectivity [2]	IC50 [2, 8] [µM]	ΔTm at 8 µM [4] [°C]	IC50 [5] [µM]	AUC(0-inf) ([6]; male, SD) [ng·h/mL]	Cmax ([6]; male, SD) [ng/mL]	MRT inf ([6]; male, SD) [h]	Tmax ([6]; male, SD) [h]	half-life ([6]; male, SD) [h]	other results
CNN(C(=O)c1cc2c3c(c(N)nc2cn1)COC3)C1COc2cc(S(F)(F)(F)(F)F)ccc21 (single isomer, unassigned) [Example 372-P1]	0.819	69	0.012	11.6							AUC(0-inf) [3]: 2570 ng·h/mL; Cmax [3]: 378 ng/mL; MRT inf [3]: 4.8 h; Tmax [3]: 2.7 h; half-life [3]: 2.7 h
[2H]C([2H])([2H])NN(C(=O)c1cc2c(cn1)nc(N)c1cnn(C)c12)C1COCc2c1ccn1c(C(F)(F)F)cnc21 (single isomer, unassigned) [Example 391-P1]		14			> 30						IC50 ([1]; HCT116 wild-type cells): 0.121 µM; IC50 ([2]; MTAP Knockout HCT116 cells): 0.0088 µM; ΔTm (°C) [4]: 13.02 °C
Cc1cc2nc(N)c3cncn3c2cc1C(=O)N(C1COCc2nc(C(F)(F)F)ccc21)N(C)C (centres unmarked) [Example 276, 4-Amino-N',N',7-trimethyl-N-(2-(trifluoromethyl)-5,8-dihydro-6H-pyrano[3,4-b]pyridin-5-yl)imidazo[1,5-a]quinoxaline-8-carbohydrazide]				10.4	> 30						
CNN(C(=O)c1cc2c3c(c(N)nc2cn1)COC3)[C@@H]1COCc2nc(C(F)(F)F)ccc21 [Example 286-P1, (S)-4-amino-N'-methyl-N-(2-trifluoromethyl-5,8-dihydro-6H-pyrano[3,4-b]pyridin-5-yl)-1,3-dihydrofuro[3,4-c][1,7]naphthyridine-8-carbohydrazide]	2.68	118	0.023	11.1	> 30	1280	480	2.5	0.5	2.1	
[2H]C([2H])([2H])NN(C(=O)c1cc2c3c(c(N)nc2cn1)COC3)C1COCc2nc(C(F)(F)F)ccc21 (centres unmarked) [Example 321]				10.9	> 30						
[2H]C([2H])([2H])NN(C(=O)c1cc2c3c(c(N)nc2cc1C)COC3)C1COCc2c1ccn1c(C(F)(F)F)cnc21 (centres unmarked) [Example 357, 4-Amino-7-methyl-N'-methyl-d3-N-(3-trifluoromethyl-7,10-dihydro-8H-imidazo[1,2-a]pyrano[3,4-c]pyridin-7-yl)-1,3-dihydrofuro[3,4-c]quinoline-8-carbohydrazide]	0.76	100	0.0076	12.2		1080	360	2.2	0.7	1.2	
[2H]C([2H])([2H])NN(C(=O)c1cc2c3c(c(N)nc2cn1)[C@@H](C)OC3)[C@@H]1COCc2c1ccn1c(C(F)(F)F)cnc21 [Example 362-P1]	0.45	68	0.0067	12	> 30						AUC(0-inf) [6]: 8180 ng·h/mL; Cmax [6]: 2750 ng/mL; MRT inf [6]: 2.8 h; Tmax [6]: 0.7 h; half-life [6]: 2.7 h
[2H]C([2H])([2H])NN(C(=O)c1cc2c3c(c(N)nc2cn1)COC3)C1COCc2c1ccn1c(C(F)(F)F)cnc21 (centres unmarked) [Example 371, 4-Amino-N'-(methyl-d3)-N-(3-(trifluoromethyl)-7,10-dihydro-8H-imidazo[1,2-a]pyrano[3,4-c]pyridin-7-yl)-1,3-dihydrofuro[3,4-c][1,7]naphthyridine-8-carbohydrazide]				10.6	> 30	3730	1050	4.4	0.5	4.4	
CNN(C(=O)c1cc2c3c(c(N)nc2cn1)COC3)[C@@H]1COCc2nc(S(F)(F)(F)(F)F)ccc21 [Example 374, 4-Amino-N'-methyl-N-(2-pentafluorosulphanyl-5,8-dihydro-6H-pyrano[3,4-b]pyridin-5-yl)-1,3-dihydrofuran[3,4-c][1,7]naphthyridine-8-hydrazide]	0.303	23	0.013	12.3	> 30						AUC(0-inf) [6]: 1180 ng·h/mL; Cmax [6]: 652 ng/mL; MRT inf [6]: 1.9 h; Tmax [6]: 0.5 h; half-life [6]: 1.9 h
[2H]C([2H])([2H])NN(C(=O)c1cc2c(cn1)nc(N)c1cnn(C)c12)C1COCc2c1ccn1c(C(F)(F)F)cnc21 (centres unmarked) [Example 391, 4-Amino-1-methyl-N'-(methyl-d3)-N-(3-trifluoromethyl-7,10-dihydro-8H-imidazo[1,2-a]pyrano[3,4-c]pyridin-7-yl)-1H-pyrazolo[4,3-c][1,7]naphthyridine-8-carbohydrazide]		28	0.013	12.7	> 30	11900	1690	5.8	1.5	4.4	IC50 ([1]; HCT116 wild-type cells): 0.358 µM
[2H]C([2H])([2H])NN(C(=O)c1ccc2nc(N)c3cnn(C)c3c2c1)C1COCc2c1ccn1c(C(F)(F)F)cnc21 (centres unmarked) [Example 436]	1.64	185	0.0089	11.5		2030	143	14.9	3.3	10.8	
